Test results reported in patent US6809091B1, “Substances capable of inducing apoptosis” (Takara Bio Inc., priority 1998, dated 2004).
Where two headings read alike, the source gives them in different places.

Assays:
[1] = test system: HL-60 cells; assay: observation of apoptosis under an optical microscope; assay type: cell-based, human; conditions: HL-60, 24 hours
Experimental: (1) HL-60 cells (ATCC CCL-240) incubated at 37° C. in an RPMI 1640 medium (manufactured by BioWhittaker) containing 10% of fetal bovine serum (manufactured by JRH) treated at 56° C. for 30 minutes were suspended in an RPMI 1640 medium to make the concentration 2.5×10^5 cells/5 ml.
To 5 ml of this suspension were added 10 μl of 12.5 mM, 25 mM, 50 mM or 100 mM of a 70% ethanolic solution of 4,5-dihydroxy-2-pentenal prepared in Example 6-(1), 0.05 mM, 0.5 mM, 5 mM or 50 mM of a 70% ethanolic solution of 4-hydroxy-2-cyclopenten-1-[…] prepared in Example 6-(1), 5 mM, 10 mM or 20 mM of a 70% ethanolic solution of 4-(9-adeninyl)-2-cyclopenten-1-one prepared in Example 4-(4), 2.5 mM, 5 mM, 15 mM or 25 mM of a 70% ethanolic solution of 4-(9-guaninyl)-2-cyclopenten-1-one prepared in Example 4-(5), 75 mM, 150 mM or 300 mM of a 70% ethanolic solution of 1,5-epoxy-1-hydroxy-3-penten-2-one prepared in Example 5-(2) or 5 mM, 25 mM or 50 mM of a 70% ethanolic solution of 2-(trans-3,4-dihydroxy-1-butenyl)-4-(trans-2-formylvinyl)-1,3-dioxolane prepared in Example 6-(2) followed by incubating at 37° C. in the presence of 5% carbon dioxide gas for 24 hours.
Incidentally, such phenomena were not noted in the incubated cells to which […] of 70% ethanolic solution were added used as a control.

[2] = test system: HL-60 cells; assay: Trypan Blue staining, survival rate; assay type: cell-based; conditions: Homo sapiens, HL-60, 24 hours, concentration where survival rate becomes 50%, read-out: Survival Rate50
Experimental: (3) The cells which were incubated for 24 hours by the same manner as in Example 9-(2) were stained with 0.4% Trypan Blue and observed under an optical microscope, numbers of viable cells which were not stained and of dead cells which were stained in blue were measured, concentration (survival rate50) of each of the samples where survival rate becomes 50% was determined and the result is given in Table 1.

[3] = test system: DSEK cells; assay: cell growth of DSEK cells (rheumatism model in vitro), Premix WST-1; assay type: cell-based, human; conditions: for IC50: Homo sapiens; for inhibition of growth of rheumatism cells / antirheumatic activity: compared with the case where PBS was added
Experimental: (2) DSEK cells (owned by Department of Second Internal Medicine, Total Medical Center, Saitama Medical College, as a rhematism model in vitro) which were fibroblast cell strains established from synovial membrane from a patient suffering from human chronic rheumatism were incubated in an Iscov-MEM medium (IMDM; manufactured by Gibco BRL) containing 10% of FBS (manufactured by BioWhittaker) at 37° C. in the presence of 5% CO2 until the cells saturated in a incubator, a trypsin-EDTA solution (manufactured by BioWhittaker) was suspended in the above medium to an extent of 3×10^4 cells/ml and each 200 μl of the suspension was placed in each well of a 96-well microtiter plate (manufactured by Falcon). When the cells were almost in a state of 80% saturation after 5-7 days from incubation, the medium was exchanged and 200 μl of the above medium containing 50, 75, 100 or 150 μM of 4-hydroxy-2-cyclopenten-1-one or 4,5-dihydroxy-2-pentenal were added thereto.
A time course of 96 hours was adopted and, every 24 hours, 10 μl of Premix WST-1 (MK 400; manufactured by Takara Shuzo) were added followed by reacting at 37° C. for 3.5 hours and the value (A450-650) obtained by subtracting the absorbance at 650 nm (A650) from that at 450 nm (A450) was defined as a degree of cell growth.
(3) DSEK cells were prepared under the conditions as mentioned in Example 15-(2) and 20 μl of medium containing 25, 50, 75, 100, 200 or 400 μM of 4,5-dihydroxy-2-pentenal, 4-hydroxy-2-cyclopenten-1-one, 4-(9-guaninyl)-2-cyclopenten1-one or 2-(3,4-dihydroxy-1-butenyl)-4-(2-formylvinyl)-1,3-dioxolane were added thereto.
A time course of 72 hours was adopted and, every 24 hours, degree of cell growth was measured with a lapse of time. IC50 of each of the compounds was measured as well.

[4] = test system: human IL-1α; assay: cytokine production in DSEK cells, ELISA; assay type: cell-based; conditions: DSEK cell incubation, supernatant every 24 hours
Experimental: Now, in the DSEK cell incubation, 150 μl/well of the supernatant liquid of the medium were recovered every 24 hours and influence of 4-hydroxy-2-cyclopenten-1-one or 4,5-dihydroxy-2-pentenal on the production of cytokines (human TGF-β, human FGF-β, human IL-1α and human IL-10) was measured using an ELISA-kit specific to each of the cytokine (the kit manufactured by INTERGEN or human FGF-β and human IL-10; and the kit manufactured by Promega for human IL-1α and human TGF-β).

[5] = 24 hours, Example 15-(3), read-out: IC50
[6] = 48 hours, Example 15-(2), read-out: IC50, 50% cell growth inhibiting concentration
[7] = 72 hours, Example 15-(3), read-out: IC50
[8] = 96 hours, Example 15-(2), read-out: IC50, 50% cell growth inhibiting concentration

O=CC=CC(O)CO (single isomer, unassigned) [4,5-dihydroxy-2-pentenal, trans-4,5-dihydroxy-2-pentenal]
final concentration at which aggregation of nuclei, reduction in size of the cells and formation of apoptic body were confirmed [1]: ≥ 1 µM
IC50 [2]: 124 µM
Degree of Cell Growth ([3]; 50 μM, 24 hours): 1.12 A450-650
Degree of Cell Growth ([3]; 50 μM, 48 hours): 0.83 A450-650
Degree of Cell Growth ([3]; 50 μM, 72 hours): 0.96 A450-650
Degree of Cell Growth ([3]; 50 μM, 96 hours): 0.98 A450-650
Degree of Cell Growth ([3]; 75 μM, 24 hours): 1.11 A450-650
Degree of Cell Growth ([3]; 75 μM, 48 hours): 0.77 A450-650
Degree of Cell Growth ([3]; 75 μM, 72 hours): 0.67 A450-650
Degree of Cell Growth ([3]; 75 μM, 96 hours): 0.59 A450-650
Degree of Cell Growth ([3]; 100 μM, 24 hours): 1.02 A450-650
Degree of Cell Growth ([3]; 100 μM, 48 hours): 0.63 A450-650
Degree of Cell Growth ([3]; 100 μM, 72 hours): 0.54 A450-650
Degree of Cell Growth ([3]; 100 μM, 96 hours): 0.59 A450-650
Degree of Cell Growth ([3]; 150 μM, 24 hours): 0.96 A450-650
Degree of Cell Growth ([3]; 150 μM, 48 hours): 0.61 A450-650
Degree of Cell Growth ([3]; 150 μM, 72 hours): 0.41 A450-650
Degree of Cell Growth ([3]; 150 μM, 96 hours): 0.55 A450-650
IC50 [3, 5]: 232 µM
IC50 [3, 6]: 165 µM
IC50 [3, 7]: 119 µM
IC50 [3, 8]: 75 µM
inhibition of growth of rheumatism cells / antirheumatic activity [3]: significant inhibition
production of human IL-1α [4]: activated

O=C/C=C/C1COC(/C=C/C(O)CO)O1 (stereo not drawn) [2-(trans-3,4-dihydroxy-1-butenyl)-4-(trans-2-formylvinyl)-1,3-dioxolane]
final concentration at which aggregation of nuclei, reduction in size of the cells and formation of apoptic body were confirmed [1]: ≥ 80 µM
IC50 [2]: 74.4 µM
IC50 [3, 5]: 267 µM
IC50 [3, 7]: 68 µM
inhibition of growth of rheumatism cells / antirheumatic activity [3]: significant inhibition
production of human IL-1α [4]: activated

Nc1nc2c(ncn2C2C=CC(=O)C2)c(=O)[nH]1 (centres unmarked) [4-(9-guaninyl)-2-cyclopenten-1-one]
final concentration at which aggregation of nuclei, reduction in size of the cells and formation of apoptic body were confirmed [1]: ≥ 39 µM
IC50 [2]: 67.9 µM
IC50 [3, 5]: 132 µM
IC50 [3, 7]: 67 µM
inhibition of growth of rheumatism cells / antirheumatic activity [3]: significant inhibition
production of human IL-1α [4]: activated

O=C1C=CC(O)C1 (centres unmarked) [4-hydroxy-2-cyclopenten-1-one]
IC50 [2]: 25.5 µM
Degree of Cell Growth ([3]; 50 μM, 24 hours): 0.57 A450-650
Degree of Cell Growth ([3]; 50 μM, 48 hours): 0.71 A450-650
Degree of Cell Growth ([3]; 50 μM, 72 hours): 0.73 A450-650
Degree of Cell Growth ([3]; 50 μM, 96 hours): 0.54 A450-650
Degree of Cell Growth ([3]; 75 μM, 24 hours): 0.51 A450-650
Degree of Cell Growth ([3]; 75 μM, 48 hours): 0.68 A450-650
Degree of Cell Growth ([3]; 75 μM, 72 hours): 0.68 A450-650
Degree of Cell Growth ([3]; 75 μM, 96 hours): 0.55 A450-650
Degree of Cell Growth ([3]; 100 μM, 24 hours): 0.50 A450-650
Degree of Cell Growth ([3]; 100 μM, 48 hours): 0.64 A450-650
Degree of Cell Growth ([3]; 100 μM, 72 hours): 0.67 A450-650
Degree of Cell Growth ([3]; 100 μM, 96 hours): 0.51 A450-650
Degree of Cell Growth ([3]; 150 μM, 24 hours): 0.46 A450-650
Degree of Cell Growth ([3]; 150 μM, 48 hours): 0.55 A450-650
Degree of Cell Growth ([3]; 150 μM, 72 hours): 0.63 A450-650
Degree of Cell Growth ([3]; 150 μM, 96 hours): 0.50 A450-650
IC50 [3, 5]: 207 µM
IC50 [3, 6]: 60 µM
IC50 [3, 7]: 60 µM
IC50 [3, 8]: 35 µM
inhibition of growth of rheumatism cells / antirheumatic activity [3]: significant inhibition
production of human IL-1α [4]: inhibited
